Consider 37 molecules from patent US8604034B2, “Substituted imidazo[1,2-α]pyrrolo[1,2-d]pyrazines for treating respiratory syncytial virus (RSV) infections” (Biota Scientific Management Pty Ltd., priority 2010, dated 2013).

Like-named read-outs stand apart in the source and are kept apart here.

The experiment concerns RSV A2. Put plainly: RSV antiviral cytopathic effect (CPE) assay. Conditions: human respiratory syncytial virus, HEp-2, 120 h, HEp2 cells infected with RSV A2 (moi ~0.01), 5 days, MTT readout. In kind it is cell-based. The method, boiled down:
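HEp2 cells infected with RSV A2 (moi ~0.01) and incubated with serially diluted compound for 5 days at 37 °C. CPE read by MTT metabolism (absorbance 540/650 nm); uninfected cells gave cytotoxicity. EC50 and CC50 obtained by non-linear regression.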
In general terms: Protection from cytopathic effect is a common read-out in antiviral testing.

[1] abbreviates: read-out: Activity Range (RSV A2 EC50).
Where [2] appears, read: mean EC50, read-out: RSV A2 EC50.

One may read the EC50 as the concentration that produces a half-maximal response.

Consider `COc1ccc(C23Cn4c(ccc4-c4cnn(C)c4)C(=O)N2CCN3C(=O)c2conc2C)cc1` (centres unmarked) [Compound 34], for which the EC50 runs as follows: under setting [1], 100 to 499 nM; under setting [2], 380 nM.
In the same order, the values of `COc1ccc(C23Cn4cc(C#N)cc4C(=O)N2CCN3C(=O)c2conc2C)cc1` (centres unmarked) [Compound 89, 10a-(4-methoxyphenyl)-1-[(3-methyl-1,2-oxazol-4-yl)carbonyl]-5-oxo-2,3,10,10a-tetrahydro-1H,5H-imidazo[1,2-a]pyrrolo[1,2-d]pyrazine-7-carbonitrile] are 500 to 10000 nM and 1600 nM.
In the same order, the values of `COc1ccc(C23Cn4cc(-c5cncnc5)cc4C(=O)N2CCN3C(=O)c2conc2C)cc1` (centres unmarked) [Compound 90] are 500 to 10000 nM and 1300 nM.
In the case of `Cc1nocc1C(=O)N1CCN2C(=O)c3cc(CN4CCOCC4)cn3CC12c1ccc(Cl)cc1` (centres unmarked) [Compound 26], the EC50 under setting [1] was more than 10000 nM.
Same read-out and setting: next, `CC(=O)c1cc2n(c1)CC1(c3ccc(Cl)cc3)N(C(=O)c3cnoc3C)CCN1C2=O` (centres unmarked) [Compound 24, 7-acetyl-10a-(4-chlorophenyl)-1-[(5-methyl-1,2-oxazol-4-yl)carbonyl]-2,3,10,10a-tetrahydro-1H,5H-imidazo[1,2-a]pyrrolo[1,2-d]pyrazin-5-one]: more than 10000 nM.
For `O=C(NCCc1ccccc1)N1CCN2C(=O)c3cccn3CC12c1ccc(Cl)cc1` (centres unmarked) [Compound 48], the EC50 was 500 to 10000 nM under setting [1] and 1300 nM under setting [2].
Take `Cc1nocc1C(=O)N1CCN2C(=O)c3cccn3CC12c1ccc(C(F)(F)F)cn1` (centres unmarked) [Compound 116, 1-[(3-methyl-1,2-oxazol-4-yl)carbonyl]-10a-[5-(trifluoromethyl)pyridin-2-yl]-2,3,10,10a-tetrahydro-1H,5H-imidazo[1,2-a]pyrrolo[1,2-d]pyrazin-5-one]: the EC50 is, setting by setting: under setting [1], 50 to 99 nM; under setting [2], 59 nM.
The like results for `O=C(c1conc1C(F)(F)F)N1CCN2C(=O)c3cccn3CC12c1ccc(Cl)cc1` (centres unmarked) [Compound 49] were, in that order, less than 49 nM and 7.9 nM.
The like results for `COc1ccc(C23Cn4cc(-c5cnn(C)c5)cc4C(=O)N2CCN3C(=O)c2conc2C)cc1` (centres unmarked) [Compound 82] were, in that order, less than 49 nM and 48 nM.
As for `Cc1nocc1C(=O)N1CCN2C(=O)c3cc(-c4cccnc4)cn3CC12c1ccc(Cl)cc1` (centres unmarked) [Compound 30, 10a-(4-chlorophenyl)-1-[(3-methyl-1,2-oxazol-4-yl)carbonyl]-7-(pyridin-3-yl)-2,3,10,10a-tetrahydro-1H,5H-imidazo[1,2-a]pyrrolo[1,2-d]pyrazin-5-one], the EC50 is, setting by setting: under setting [1], less than 49 nM; under setting [2], 36 nM.
The like results for `Cc1ccc(C23Cn4cc(-c5cccnc5)cc4C(=O)N2CCN3C(=O)c2conc2C)nc1` (centres unmarked) [Compound 120] were, in that order, 50 to 99 nM and 87 nM.
On to `COc1ccc(C23Cn4cccc4C(=O)N2CCN3C(=O)c2ccsc2)cc1` (centres unmarked) [Compound 137], for which the EC50 was 500 to 10000 nM under setting [1] and 6600 nM under setting [2].
The like results for `Cc1nocc1C(=O)N1CCN2C(=O)c3cccc(=O)n3CC12c1ccc(Cl)cc1` (centres unmarked) [Compound 39, 11a-(4-chlorophenyl)-1-[(3-methyl-1,2-oxazol-4-yl)carbonyl]-2,3,11,11a-tetrahydro-1H-imidazo[1,2-a]pyrido[1,2-d]pyrazine-5,9-dione] were, in that order, less than 49 nM and 15 nM.
Regarding `O=C1c2cccn2CC2(c3cccnc3)NCCN12` (centres unmarked) [Compound 102, 10a-(pyridin-3-yl)-2,3,10,10a-tetrahydro-1H,5H-imidazo[1,2-a]pyrrolo[1,2-d]pyrazin-5-one], under setting [1], the EC50 was more than 10000 nM.
Take `Cc1nocc1C(=O)N1CCN2C(=O)c3cccn3CC12c1ccc(OCCO)cc1` (centres unmarked) [Compound 109, 10a-[4-(2-hydroxyethoxy)phenyl]-1-[(3-methyl-1,2-oxazol-4-yl)carbonyl]-2,3,10,10a-tetrahydro-1H,5H-imidazo[1,2-a]pyrrolo[1,2-d]pyrazin-5-one]: the EC50 by setting is: under setting [1], 100 to 499 nM; under setting [2], 300 nM.
The like results for `COc1ccc(C23Cn4cccc4C(=O)N2CCN3C(=O)c2conc2C)cc1` (centres unmarked) [Compound 6] were, in that order, 50 to 99 nM and 52 nM.
In the same order, the values of `COc1ccc(C23Cn4cc(-c5ccccn5)cc4C(=O)N2CCN3C(=O)c2conc2C)cn1` (centres unmarked) [Compound 128] are 50 to 99 nM and 64 nM.
As for `COc1ccc(C23Cn4c(C)ccc4C(=O)N2CCN3C(=O)c2conc2C)cc1` (centres unmarked) [Compound 107, 10a-(4-methoxyphenyl)-8-methyl-1-[(3-methyl-1,2-oxazol-4-yl)carbonyl]-2,3,10,10a-tetrahydro-1H,5H-imidazo[1,2-a]pyrrolo[1,2-d]pyrazin-5-one], the EC50 is, setting by setting: under setting [1], less than 49 nM; under setting [2], 14 nM.
In the same order, the values of `COc1ccc(C23Cn4cccc4C(=O)N2CCN3C(=O)c2ncoc2C2CC2)cc1` (centres unmarked) [Compound 59] are 100 to 499 nM and 180 nM.
The like results for `Cc1ccc(C23Cn4cc(Br)cc4C(=O)N2CCN3C(=O)c2conc2C)nc1` (centres unmarked) [Compound 117] were, in that order, 500 to 10000 nM and 880 nM.
Consider `Cc1nocc1C(=O)N1CCN2C(=O)c3cccn3CC12c1ccc(Cl)cc1` (centres unmarked) [Compound 4], for which the EC50 runs as follows: under setting [1], less than 49 nM; under setting [2], 19 nM.
In the same order, the values of `Cc1nocc1C(=O)N1CCN2C(=O)c3cccn3CC12c1ccccc1` (centres unmarked) [Compound 35, 1-[(3-methyl-1,2-oxazol-4-yl)carbonyl]-10a-phenyl-2,3,10,10a-tetrahydro-1H,5H-imidazo[1,2-a]pyrrolo[1,2-d]pyrazin-5-one] are 50 to 99 nM and 54 nM.
The like results for `COCc1ccc(C23Cn4cccc4C(=O)N2CCN3C(=O)c2conc2C)cc1` (centres unmarked) [Compound 76] were, in that order, 50 to 99 nM and 67 nM.
In the same order, the values of `COc1ccc(C23Cn4c(C)ccc4C(=O)N2CCN3C(=O)c2conc2C)cn1` (centres unmarked) [Compound 152] are less than 49 nM and 5.8 nM.
As to `COc1ccc(C23Cn4cccc4C(=O)N2CCN3C(=O)c2ccoc2)cc1` (centres unmarked) [Compound 54], the EC50 is 500 to 10000 nM under setting [1] and 600 nM under setting [2].
For the molecule `Cc1cc2n(n1)CC1(c3ccc(Cl)cc3)N(C(=O)c3ccc(F)nc3)CCN1C2=O` (centres unmarked) [Compound 45], the EC50 under setting [1] was more than 10000 nM.
With `Cc1nocc1C(=O)N1CCN2C(=O)c3cc(-c4cnn(C)c4)cn3CC12c1ccc(Cl)cc1` (centres unmarked) [Compound 31], the EC50 by setting is: under setting [1], less than 49 nM; under setting [2], 7.6 nM.
`Cc1nocc1C(=O)N1CCN2C(=O)c3cc(C(=O)N(C)C)cn3CC12c1ccc(Cl)cc1` (centres unmarked) [Compound 38, 10a-(4-chlorophenyl)-N,N-dimethyl-1-[(3-methyl-1,2-oxazol-4-yl)carbonyl]-5-oxo-2,3,10,10a-tetrahydro-1H,5H-imidazo[1,2-a]pyrrolo[1,2-d]pyrazine-7-carboxamide]: the EC50 under setting [1] was more than 10000 nM.
For the molecule `COc1ccc(C23Cn4cc(F)cc4C(=O)N2CCN3C(=O)c2conc2C(F)(F)F)cc1` (centres unmarked) [Compound 66], the EC50 runs as follows: under setting [1], less than 49 nM; under setting [2], 15 nM.
The like results for `Cc1nocc1C(=O)N1CCN2C(=O)c3cc(-c4ccccn4)nn3CC12c1ccc(Cl)cc1` (centres unmarked) [Compound 63, 10a-(4-chlorophenyl)-1-[(3-methyl-1,2-oxazol-4-yl)carbonyl]-7-(pyridin-2-yl)-2,3,10,10a-tetrahydro-1H,5H-imidazo[1,2-a]pyrazolo[1,5-d]pyrazin-5-one] were, in that order, less than 49 nM and 21 nM.
The like results for `Cc1oncc1C(=O)N1CCN2C(=O)c3cccc(=O)n3CC12c1ccc(Cl)cc1` (centres unmarked) [Compound 40] were, in that order, 100 to 499 nM and 210 nM.
The like results for `Cc1nocc1C(=O)N1CCN2C(=O)c3cccn3CC12C1CCOCC1` (centres unmarked) [Compound 50, 1-[(3-methyl-1,2-oxazol-4-yl)carbonyl]-10a-(tetrahydro-2H-pyran-4-yl)-2,3,10,10a-tetrahydro-1H,5H-imidazo[1,2-a]pyrrolo[1,2-d]pyrazin-5-onel] were, in that order, 500 to 10000 nM and 1420 nM.
`COc1ccc(C23Cn4cc(N)cc4C(=O)N2CCN3C(=O)c2conc2C)cc1` (centres unmarked) [Compound 111, 7-amino-10a-(4-methoxyphenyl)-1-[(3-methyl-1,2-oxazol-4-yl)carbonyl]-2,3,10,10a-tetrahydro-1H,5H-imidazo[1,2-a]pyrrolo[1,2-d]pyrazin-5-one]: the EC50 under setting [1] was more than 10000 nM and the EC50 under setting [2] came out at 16000 nM.
In the same order, the values of `Cc1nocc1C(=O)N1CCN2C(=O)c3ccc(-c4cccnc4)n3CC12c1ccc(Cl)cc1` (centres unmarked) [Compound 33] are 500 to 10000 nM and 3100 nM.
`Cc1cc2n(n1)CC1(c3ccc(Cl)cc3)N(C(=O)c3ccc(F)cc3)CCN1C2=O` (centres unmarked) [Compound 42]: the EC50 under setting [1] is more than 10000 nM.
With `Cc1nocc1C(=O)OCc1ccc(C23Cn4cccc4C(=O)N2CCN3C(=O)c2conc2C)cc1` (centres unmarked) [Compound 62, 4-{1-[(3-methyl-1,2-oxazol-4-yl)carbonyl]-5-oxo-2,3-dihydro-1H,5H-imidazo[1,2-a]pyrrolo[1,2-d]pyrazin-10a(10H)-yl}benzyl 3-methyl-1,2-oxazole-4-carboxylate], the EC50 is less than 49 nM under setting [1] and 48 nM under setting [2].
In the same order, the values of `Cc1nocc1C(=O)N1CCN2C(=O)c3ccc(CN4CCOCC4)n3CC12c1ccc(Cl)cc1` (centres unmarked) [Compound 25, 10a-(4-chlorophenyl)-1-[(3-methyl-1,2-oxazol-4-yl)carbonyl]-8-(morpholin-4-ylmethyl)-2,3,10,10a-tetrahydro-1H,5H-imidazo[1,2-a]pyrrolo[1,2-d]pyrazin-5-one] are 50 to 99 nM and 65 nM.
